From US12459899B2, “Isoquinolinone derivatives, method for preparing the same, and pharmaceutical composition for preventing or treating poly(ADP-ribose) polymerase-1-related diseases, comprising the same as active ingredient” (DIGMBIO. INC., priority 2019, dated 2025) come the findings set out here.

This assay concerns the target PARP-1 (poly[ADP-ribose] polymerase 1) enzyme (Homo sapiens (Human), UniProt P09874). Kind of assay: PARP-1 (poly[ADP-ribose] polymerase 1) enzyme inhibitory ability, Trevigen assay kit. As to conditions: for IC50: PARP-1 enzyme activity. Format: biochemical. As to the method: In order to evaluate the PARP-1 (poly[ADP-ribose] polymerase 1) enzyme inhibitory ability of the compounds according to the present invention, an experiment was conducted as follows.
Specifically, in order to evaluate the PARP-1 (poly[ADP-ribose] polymerase 1) enzyme inhibitory ability of the compounds of Examples 1 to 276 according to the present invention, the PARP-1 (poly[ADP-ribose] polymerase 1) activity was investigated in the following manner using an assay kit purchased from Trevigen, Inc. (Catalog number: 4677-096-K). 50 μL of 1×PARP buffer (provided by Trevigen's kit) was dispensed into a 96-well plate coated with histones per each well, and then rehydrated for 30 minutes. After removing the 1×PARP buffer present in the well, PARP-1 (poly[ADP-ribose] polymerase 1) enzyme (0.5 unit/well) and 1 μM concentration or various concentrations of the compounds of Example 1 to 276 were added at room temperature and reacted for 10 minutes. Thereafter, each well was treated with 25 μL of 1×PARP cocktail (biotinylated NAD, activated DNA, provided by Trevigen's kit), and then reacted at room temperature for 1 hour. After the reaction was completed, each well was washed twice with PBS (7.5 mM Na2HPO4, 2.5 mM NaH2PO4, 145 mM NaCl) containing 0.1% triton X-100, and washed twice with PBS. Then, 50 μL of strep-HRP (streptavidin-linked peroxidase) was added and reacted at room temperature for 1 hour, and then washed twice with PBS containing 0.1% triton X-100, and washed twice with PBS. After removing all PBS, 50 μL of TACS-sapphire, a substrate, was added, and reacted at room temperature for 15 minutes while blocking the light. After the reaction was terminated by treatment with 50 μL of 5% phosphoric acid to each well, the absorbance was measured at 450 nm using a microplate reader Victor3 from PerkinElmer, Inc. to quantify the value.

The mark [1] stands for this setting: 1 nM compound, read-out: PAR P-1 Inhibitory ability at 1 nM.

Like-named read-outs stand apart in the source and are kept apart here. Where only a bound is given, the exact number is not on record here.

Sequence of PARP-1 (poly[ADP-ribose] polymerase 1) enzyme (P09874 whole entry): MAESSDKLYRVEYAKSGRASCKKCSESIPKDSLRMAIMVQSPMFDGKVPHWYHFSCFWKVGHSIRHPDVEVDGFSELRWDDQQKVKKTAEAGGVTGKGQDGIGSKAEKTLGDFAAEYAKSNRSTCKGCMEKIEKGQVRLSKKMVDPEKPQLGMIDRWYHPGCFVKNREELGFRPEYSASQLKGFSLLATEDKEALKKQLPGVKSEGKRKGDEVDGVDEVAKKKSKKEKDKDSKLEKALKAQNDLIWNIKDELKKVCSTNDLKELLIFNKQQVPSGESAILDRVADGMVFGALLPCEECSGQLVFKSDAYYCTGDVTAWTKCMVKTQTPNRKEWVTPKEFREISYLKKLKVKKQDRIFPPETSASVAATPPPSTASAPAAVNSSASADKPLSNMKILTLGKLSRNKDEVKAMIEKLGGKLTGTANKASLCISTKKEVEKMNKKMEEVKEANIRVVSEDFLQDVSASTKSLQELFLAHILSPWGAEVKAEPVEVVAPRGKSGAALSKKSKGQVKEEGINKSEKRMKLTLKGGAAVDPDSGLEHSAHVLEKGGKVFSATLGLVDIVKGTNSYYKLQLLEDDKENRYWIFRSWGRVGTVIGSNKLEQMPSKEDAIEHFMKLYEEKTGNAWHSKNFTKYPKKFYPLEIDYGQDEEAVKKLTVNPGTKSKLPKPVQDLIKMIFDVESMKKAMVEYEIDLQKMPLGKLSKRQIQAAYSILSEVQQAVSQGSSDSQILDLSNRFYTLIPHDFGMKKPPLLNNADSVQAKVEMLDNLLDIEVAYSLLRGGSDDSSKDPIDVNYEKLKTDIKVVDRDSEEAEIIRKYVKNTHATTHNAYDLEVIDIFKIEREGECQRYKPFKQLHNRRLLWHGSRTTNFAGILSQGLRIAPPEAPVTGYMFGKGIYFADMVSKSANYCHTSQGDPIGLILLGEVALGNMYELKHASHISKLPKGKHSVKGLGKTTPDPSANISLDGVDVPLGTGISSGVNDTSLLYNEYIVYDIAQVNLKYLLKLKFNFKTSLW

Regarding `Cc1ccc(F)c2c(=O)[nH]c(CCCN3CCN(c4nccs4)CC3)cc12` [Example 29, 8-fluoro-5-methyl-3-(3-(4-(thiazole-2-yl)piperazin-1-yl)propyl)isoquinolin-1(2H)-one], under setting [1], the inhibition at 0.001 µM is less than 50%. Consider `Cc1cnc(N2CCN(CCCc3cc4c(C)ccc(F)c4c(=O)[nH]3)CC2)s1` [Example 30, 8-fluoro-5-methyl-3-(3-(4-(5-methylthiazole-2-yl)piperazin-1-yl)propyl)isoquinolin-1(2H)-one], for which the inhibition at 0.001 µM under setting [1] was less than 50%. Same read-out and setting: the same measure for `Cc1ccc(F)c2c(=O)[nH]c(CCCN3CC[C@H](c4ccc(F)cc4)C3)cc12` [Example 31, (R)-8-fluoro-3-(3-(3-(4-fluorophenyl)pyrrolidin-1-yl)propyl)-5-methylisoquinolin-1(2H)-one]: less than 50%; for `Cc1ccc(F)c2c(=O)[nH]c(CCCN3CC[C@@H](c4ccc(F)cc4)C3)cc12` [Example 32, (S)-8-fluoro-3-(3-(3-(4-fluorophenyl)pyrrolidin-1-yl)propyl)-5-methylisoquinolin-1(2H)-one]: less than 50%. With `Cc1ccc(F)c2c(=O)[nH]c(CCCN3CCN(c4ccc(Cl)cc4)CC3)cc12` [Example 33, 3-(3-(4-(4-chlorophenyl)piperazin-1-yl)propyl)-8-fluoro-5-methylisoquinolin-1(2H)-one], the inhibition at 0.001 µM under setting [1] is less than 50%. As for `Cc1cc(F)cc2c(=O)[nH]c(CCCN3CCN(c4ccc(C#N)cc4)CC3)cc12` [Example 34, 4-(4-(3-(7-fluoro-5-methyl-1-oxo-1,2-dihydroisoquinolin-3-yl)propyl)piperazin-1-yl)benzonitrile], the inhibition at 0.001 µM under setting [1] is less than 50%. On to `Cc1cc(F)cc2c(=O)[nH]c(CCCN3CCN(c4ccc(C#N)nc4)CC3)cc12` [Example 35, 5-(4-(3-(7-fluoro-5-methyl-1-oxo-1,2-dihydroisoquinolin-3-yl)propyl)piperazin-1-yl)picolinonitrile], for which, under setting [1], the inhibition at 0.001 µM is less than 50%.

In the case of `Cc1cc(F)cc2c(=O)[nH]c(CCCN3CCN(c4ccc(C#N)cn4)CC3)cc12` [Example 36, 6-(4-(3-(7-fluoro-5-methyl-1-oxo-1,2-dihydroisoquinolin-3-yl)propyl)piperazin-1-yl)nicotinonitrile], the inhibition at 0.001 µM under setting [1] fell in the range of 50 to 80%. Still for that read-out and setting: the figure for `Cc1cc(F)cc2c(=O)[nH]c(CCCN3CCN(c4ccc(C#N)cc4F)CC3)cc12` [Example 37, 3-fluoro-4-(4-(3-(7-fluoro-5-methyl-1-oxo-1,2-dihydroisoquinolin-3-yl)propyl)piperazin-1-yl)benzonitrile] is less than 50%; for `Cc1cc(F)cc2c(=O)[nH]c(CCCN3CCN(c4ccc(C#N)c(F)c4)CC3)cc12` [Example 38, 2-fluoro-4-(4-(3-(7-fluoro-5-methyl-1-oxo-1,2-dihydroisoquinolin-3-yl)propyl)piperazin-1-yl)benzonitrile] it is less than 50%; for `Cc1cc(F)cc2c(=O)[nH]c(CCCN3CCN(c4ccc(C(F)(F)F)cc4)CC3)cc12` [Example 39, 7-fluoro-5-methyl-3-(3-(4-(4-(trifluoromethyl)phenyl)piperazin-1-yl)propyl)isoquinolin-1(2H)-one] it is less than 50%. Turning to `Cc1cc(F)cc2c(=O)[nH]c(CCCN3CCN(c4ccc(F)cc4)CC3)cc12` [Example 40, 7-fluoro-3-(3-(4-(4-fluorophenyl)piperazin-1-yl)propyl)-5-methylisoquinolin-1(2H)-one], the inhibition at 0.001 µM under setting [1] was 50 to 80%.

Consider `N#Cc1ccc(C2=CCN(CCCc3cc4cccc(F)c4c(=O)[nH]3)CC2)cc1` [Example 41, 4-(1-(3-(8-fluoro-1-oxo-1,2-dihydroisoquinolin-3-yl)propyl)-1,2,3,6-tetrahydropyridin-4-yl)benzonitrile], for which, under setting [1], the inhibition at 0.001 µM is 50 to 80%. For `O=c1[nH]c(CCCN2CC=C(c3ccc(F)cc3)CC2)cc2cccc(F)c12` [Example 42, 8-fluoro-3-(3-(4-(4-fluorophenyl)-3,6-dihydropyridin-1(2H)-yl)propyl)isoquinolin-1(2H)-one], under setting [1], the inhibition at 0.001 µM fell in the range of 50 to 80%.

As to `O=c1[nH]c(CCCN2CC=C(c3ccc(F)nc3)CC2)cc2cccc(F)c12` [Example 43], the inhibition at 0.001 µM under setting [1] is less than 50%. Same read-out and setting: the figure for `O=c1[nH]c(CCCN2CC=C(c3ccc(F)cn3)CC2)cc2cccc(F)c12` [Example 44, 8-fluoro-3-(3-(5-fluoro-3′,6′-dihydro-[2,4′-bipyridine]-1′(2′H)-yl)propyl)isoquinolin-1(2H)-one] is less than 50%. On the same count and under the same terms, the same measure for `O=c1[nH]c(CCCN2CC=C(c3ccc(C(F)(F)F)cc3)CC2)cc2cccc(F)c12` [Example 45, 8-fluoro-3-(3-(4-(4-(trifluoromethyl)phenyl)-3,6-dihydropyridin-1(2H)-yl)propyl)isoquinolin-1(2H)-one]: 50 to 80%.

Turning to `N#Cc1ccc(C2=CCN(CCCc3cc4ccc(F)cc4c(=O)[nH]3)CC2)cc1` [Example 47, 4-(1-(3-(7-fluoro-1-oxo-1,2-dihydroisoquinolin-3-yl)propyl)-1,2,3,6-tetrahydropyridin-4-yl)benzonitrile], the inhibition at 0.001 µM is no less than 80% (1 nM (Table 2), read-out: inhibited PARP-1 enzyme activity) and greater than 80% under setting [1].

The molecule `O=c1[nH]c(CCCN2CC=C(c3ccc(F)cc3)CC2)cc2ccc(F)cc12` [Example 48, 7-fluoro-3-(3-(4-(4-fluorophenyl)-3,6-dihydropyridin-1(2H)-yl)propyl)isoquinolin-1(2H)-one] returned an IC50 of 1.32 nM. Moreover, the inhibition at 0.001 µM under setting [1] is less than 50%.

`O=c1[nH]c(CCCN2CC=C(c3ccc(Cl)cc3)CC2)cc2ccc(F)cc12` [Example 49, 3-(3-(4-(4-chlorophenyl)-3,6-dihydropyridin-1(2H)-yl)propyl)-7-fluoroisoquinolin-1(2H)-one] showed an IC50 of 3.58 nM. In addition, under setting [1], the inhibition at 0.001 µM was less than 50%. Turning to `N#Cc1ccc(C2=CCN(CCCc3cc4ccc(F)cc4c(=O)[nH]3)CC2)nc1` [Example 50, 1′-(3-(7-fluoro-1-oxo-1,2-dihydroisoquinolin-3-yl)propyl)-1′,2′,3′,6′-tetrahydro-[2,4′-bipyridine]-5-carbonitrile], 1.88 nM corresponded to half-maximal inhibition (IC50). Besides, under setting [1], the inhibition at 0.001 µM was less than 50%. Regarding `N#Cc1ccc(C2=CCN(CCCc3cc4ccc(F)cc4c(=O)[nH]3)CC2)cc1F` [Example 52, 2-fluoro-4-(1-(3-(7-fluoro-1-oxo-1,2-dihydroisoquinolin-3-yl)propyl)-1,2,3,6-tetrahydropyridin-4-yl)benzonitrile], under setting [1], the inhibition at 0.001 µM was less than 50%. On to `Cc1ccc(F)c2c(=O)[nH]c(CCCN3CC=C(c4ccc(F)cc4)CC3)cc12` [Example 53, 8-fluoro-3-(3-(4-(4-fluorophenyl)-3,6-dihydropyridin-1(2H)-yl)propyl)-5-methylisoquinolin-1(2H)-one], for which the inhibition at 0.001 µM under setting [1] was less than 50%. Consider `Cc1ccc(F)c2c(=O)[nH]c(CCCN3CC=C(c4ccc(C#N)cc4)CC3)cc12` [Example 54, 4-(1-(3-(8-fluoro-5-methyl-1-oxo-1,2-dihydroisoquinolin-3-yl)propyl)-1,2,3,6-tetrahydropyridin-4-yl)benzonitrile], for which the IC50 came out at 1.42 nM. In addition, under setting [1], the inhibition at 0.001 µM was less than 50%. `Cc1ccc(F)c2c(=O)[nH]c(CCCN3CC=C(c4ccc(C#N)c(F)c4)CC3)cc12` [Example 55, 2-fluoro-4-(1-(3-(8-fluoro-5-methyl-1-oxo-1,2-dihydroisoquinolin-3-yl)propyl)-1,2,3,6-tetrahydropyridin-4-yl)benzonitrile] yielded an IC50 of 1.77 nM. The inhibition at 0.001 µM under setting [1] was in the range of 50 to 80%. In the case of `Cc1ccc(F)c2c(=O)[nH]c(CCCN3CC=C(c4ccc([N+](=O)[O-])cc4F)CC3)cc12` [Example 56, 8-fluoro-3-(3-(4-(2-fluoro-4-nitrophenyl)-3,6-dihydropyridin-1(2H)-yl)propyl)-5-methylisoquinolin-1(2H)-one], the inhibition at 0.001 µM under setting [1] was less than 50%. With `Cc1ccc(F)c2c(=O)[nH]c(CCCN3CC=C(c4ccc(C#N)cn4)CC3)cc12` [Example 57, 1′-(3-(8-fluoro-5-methyl-1-oxo-1,2-dihydroisoquinolin-3-yl)propyl)-1′,2′,3′,6′-tetrahydro-[2,4′-bipyridine]-5-carbonitrile], it took 0.91 nM to reach half-maximal inhibition (IC50). In addition, the inhibition at 0.001 µM under setting [1] fell in the range of 50 to 80%. On the same counts, the results for `Cc1cc(F)cc2c(=O)[nH]c(CCCN3CC=C(c4ccc(C#N)cc4)CC3)cc12` [Example 58, 4-(1-(3-(7-fluoro-5-methyl-1-oxo-1,2-dihydroisoquinolin-3-yl)propyl)-1,2,3,6-tetrahydropyridin-4-yl)benzonitrile] are 1.76 nM and 50 to 80%. Take `Cc1cc(F)cc2c(=O)[nH]c(CCCN3CC=C(c4ccc(F)cc4)CC3)cc12` [Example 59, 7-fluoro-3-(3-(4-(4-fluorophenyl)-3,6-dihydropyridin-1(2H)-yl)propyl)-5-methylisoquinolin-1(2H)-one]: under setting [1], the inhibition at 0.001 µM was less than 50%.
